Source: the supplement of paper PMC10307832

Columns and labels:
Experiment in all cases: relative viability (nuclei count vs DMSO), 5 days (fraction); higher = more cells survive
Dactolisib + Pemetrexed = compound: Cn1c(=O)n(-c2ccc(C(C)(C)C#N)cc2)c2c3cc(-c4cnc5ccccc5c4)ccc3ncc21 [Dactolisib] + Nc1nc2[nH]cc(CCc3ccc(C(=O)N[C@@H](CCC(=O)O)C(=O)O)cc3)c2c(=O)[nH]1 [Pemetrexed] (partner 0.2 µM)
Method in brief: (§1)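 After 5 days of treatment, lung cancer cells in 1536-well plates were fixed and stained in a single step (final 0.05% Triton X-100, 1% formaldehyde, 1 ug/ml Hoechst) and their nuclei counted on 4× images. Treatment had been applied by pin tool the day after seeding as one drug alone or as a fixed anchor-drug dose with five library-drug doses (not always all listed) in √10 steps. Relative viability is the nuclei count of treated wells divided by that of vehicle wells, and values are medians of duplicate plates.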

Dactolisib + Olaparib = compound: Cn1c(=O)n(-c2ccc(C(C)(C)C#N)cc2)c2c3cc(-c4cnc5ccccc5c4)ccc3ncc21 [Dactolisib] + O=C(c1cc(Cc2n[nH]c(=O)c3ccccc23)ccc1F)N1CCN(C(=O)C2CC2)CC1 [Olaparib] (partner 8 µM)
Method in brief: as §1

AZ505 + Linsitinib = compound: C1CCC(CC1)N(CCNCCC2=C3C(=C(C=C2)O)NC(=O)CO3)C(=O)CCNCCC4=CC(=C(C=C4)Cl)Cl [AZ505] + C[C@]1(O)C[C@@H](c2nc(-c3ccc4ccc(-c5ccccc5)nc4c3)c3c(N)nccn32)C1 [Linsitinib] (partner 1 µM)
Method in brief: as §1

Dactolisib + Crizotinib = compound: Cn1c(=O)n(-c2ccc(C(C)(C)C#N)cc2)c2c3cc(-c4cnc5ccccc5c4)ccc3ncc21 [Dactolisib] + C[C@@H](Oc1cc(-c2cnn(C3CCNCC3)c2)cnc1N)c1c(Cl)ccc(F)c1Cl [Crizotinib] (partner 1 µM)
Method in brief: as §1

| Cell Line | relative viability (Dactolisib + Pemetrexed; first compound 0.002 µM) | relative viability (Dactolisib + Pemetrexed; first compound 0.006325 µM) | relative viability (Dactolisib + Pemetrexed; first compound 0.02 µM) | relative viability (Dactolisib + Pemetrexed; first compound 0.06325 µM) | relative viability (Dactolisib + Pemetrexed; first compound 0.2 µM) | relative viability (Dactolisib + Olaparib; first compound 0.002 µM) | relative viability (Dactolisib + Olaparib; first compound 0.006325 µM) | relative viability (Dactolisib + Olaparib; first compound 0.02 µM) | relative viability (Dactolisib + Olaparib; first compound 0.06325 µM) | relative viability (Dactolisib + Olaparib; first compound 0.2 µM) | relative viability (AZ505 + Linsitinib; first compound 0.08 µM) | relative viability (AZ505 + Linsitinib; first compound 0.253 µM) | relative viability (AZ505 + Linsitinib; first compound 0.8 µM) | relative viability (AZ505 + Linsitinib; first compound 2.53 µM) | relative viability (AZ505 + Linsitinib; first compound 8 µM) | relative viability (Dactolisib + Crizotinib; first compound 0.002 µM) | relative viability (Dactolisib + Crizotinib; first compound 0.006325 µM) | relative viability (Dactolisib + Crizotinib; first compound 0.02 µM) | relative viability (Dactolisib + Crizotinib; first compound 0.06325 µM) | relative viability (Dactolisib + Crizotinib; first compound 0.2 µM) |
| --- | --- | --- | --- | --- | --- | --- | --- | --- | --- | --- | --- | --- | --- | --- | --- | --- | --- | --- | --- | --- |
| NCI-H1975 | 0.299 | 0.32 | 0.297 | 0.244 | 0.181 | 0.778 | 0.817 | 0.632 | 0.302 | 0.269 | 0.907 | 0.923 | 0.783 | 0.919 | 0.955 | 1.18 | 0.948 | 0.7 | 0.358 | 0.34 |
| CAL-12T | 1.23 | 1.17 | 1.17 | 0.412 | 0.325 | 0.822 | 0.662 | 0.496 | 0.286 | 0.271 | 0.72 | 0.901 | 0.684 | 0.748 | 0.9 | 0.624 | 0.661 | 0.425 | 0.216 | 0.215 |
| HCC-44 | 0.609 | 0.645 | 0.596 | 0.695 | 0.672 | 0.969 | 1.03 | 0.956 | 1.01 | 1.01 | 0.671 | 0.691 | 0.619 | 0.654 | 0.663 | 0.879 | 0.763 | 0.816 | 0.446 | 0.414 |
| EKVX | 0.248 | 0.357 | 0.387 | 0.356 | 0.294 | 0.661 | 0.867 | 0.861 | 0.469 | 0.331 | 0.963 | 1.15 | 0.951 | 1.04 | 1.06 | 0.971 | 0.879 | 0.923 | 0.686 | 0.341 |
| NCI-H1651 | 0.53 | 0.654 | 0.533 | 0.329 | 0.299 | 0.187 | 0.173 | 0.178 | 0.208 | 0.215 | 0.911 | 0.977 | 0.895 | 0.962 | 1.16 | 0.861 | 0.891 | 0.777 | 0.679 | 0.57 |
| NCI-H1944 | 0.461 | 0.564 | 0.585 | 0.286 | 0.244 | 0.548 | 0.386 | 0.397 | 0.265 | 0.21 | 1.15 | 1.12 | 1.23 | 0.922 | 1.07 | 1.18 | 1.06 | 1.03 | 0.46 | 0.392 |
| NCI-H1703 |  |  |  |  |  |  | 0.292 | 0.389 | 0.198 | 0.285 | 0.635 | 0.588 | 1.17 | 0.997 | 0.853 | 0.581 | 0.49 | 0.373 | 0.35 | 0.18 |
| Calu-6 |  |  |  |  |  | 0.553 | 0.642 | 0.688 | 0.469 | 0.458 | 0.872 | 0.929 | 0.851 | 0.92 | 0.956 | 0.891 | 0.766 | 0.702 | 0.462 | 0.325 |
